The source of these data is US20030118651A1, “Bio-compatible means for controlled drug delivery to tissue and method of use” (priority 2001, published 2003).

The format of the series is physicochemical. The conditions noted are these: pH 7.4. As for the experimental part: The ORC-active agent combinations of example 2 and 3 can be suspended in neutral buffers at pH 7.4 at 37° C. to simulate body conditions for the purpose of studying the release of the drug in the buffer (in vitro). The test samples released Marcaine in the buffer while degrading. The ORC matrix is expected to degrade completely in 3-5 days if needed, degradation can be accelerated (terminal samples) by adding sodium bicarbonate base to the buffer solution. More particularly, for example, water bath is pre-heated to 37° C. Test samples of the ORC-Marcaine are cut into small pieces and the samples (in the range of 0.05g-01 g) are weighed and placed in labeled vials. The desired amount of buffer (e.g., 100, 50, 25 or 10 times, by weight, of the test sample) is added. For terminal samples, sufficient sodium bicarbonate is added to make a 0.15 M solution. The vials are placed in the pre-heated water bath for the desired period of time (approximately 10 min-120 hours).

For the substance “oxidized regenerated cellulose [ORC matrix]”, the “time to complete degradation” value is 3 to 5 days.
